Laboratory results published in patent publication US10208000B2, “Eis inhibitors” (priority 2015, dated 2019).

Tested on: K204 Mtb
Type: cell-based, Mycobacterium tuberculosis

Compound | overcoming resistance to KAN in Mtb K204 (in words)
CCN1CCN(CCNC2=NS(=O)(=O)C(c3ccc(OC)cc3)=C2C)CC1 [Compound 37d] | did not overcome resistance to KAN
CC1=C(c2ccc(C)c(C)c2)S(=O)(=O)N=C1NCC(=O)NCc1ccc2c(c1)OCO2 [Compound 115i] | did not overcome resistance to KAN
CCCNC1=NS(=O)(=O)C(c2ccc(C)c(C)c2)=C1C [Compound 139i] | did not overcome resistance to KAN
CCCNC1=NS(=O)(=O)C(c2ccc(C)cc2)=C1C [Compound 139e] | did not overcome resistance to KAN
CCCNC1=NS(=O)(=O)C(c2ccc(F)cc2)=C1C [Compound 139b] | did not overcome resistance to KAN
CC1=C(c2ccc(F)cc2)S(=O)(=O)N=C1NCc1ccccc1 [Compound 89b] | did not overcome resistance to KAN
CC1=C(c2ccc(F)cc2)S(=O)(=O)N=C1NCc1ccco1 [Compound 87b] | did not overcome resistance to KAN
CC1=C(c2ccc(C)cc2)S(=O)(=O)N=C1NCCN1CCOCC1 [Compound 35e] | did not overcome resistance to KAN
